Key:
in vivo = test: in vivo; set-up: species or system mice; details: mouse
Experimental: Mice were administered with a 5 mg/kg dose of Roc by intravenous (IV) or intraperitoneal injection (IP) or by oral gavage (PO). Blood samples were collected before and at multiple indicated time-points after dosing (n=3). Plasma samples were obtained by centrifugation and stored at −80° C. To measure plasma concentrations of Roc, a sensitive liquid chromatography coupled with tandem mass spectrometry detection (LC/MS-MS) method was developed. The reference compounds Roc (NSC326408) and pipernyl rocaglate (NSC784086) were provided by the NCI Developmental Therapeutics Program with pipernyl rocaglate used as the internal standard for quantitation. Plasma samples were processed by taking 100 μl of plasma and adding 300 μl of methanol containing 0.05 μM of internal standard. The samples were vortexed and centrifuged at 10,000×g for 10 min. The supernatant was collected and evaporated to dryness. Dried samples were reconstituted in 100 μl of 1:1 water:acetonitrile and centrifuges at 10,000×g for 3 min, followed by injecting 10 μl into an HPLC. Compounds of interest were separated on a Kinetex EVO C18 column (150×2.1 mm) with a flow rate of 0.25 ml/min. Mobile phase consisted of 80% ammonium formate buffer (1 g/L) and 20% acetonitrile at the start of the run, and a linear gradient to 10% ammonium formate/90% acetonitrile was applied over 14 min. Roc and the internal standard were identified by MS/MS using a Thema) Vantage TSQ run in positive ion mode. The transitions used were m/z 506 to m/z 352 (Roc) and m/z 570 to m/z 450 (internal standard). […] Samples found to be above 2.5 μM of Roc were reanalyzed after dilution with blank plasma. Absolute recoveries of Roc from plasma were to be >98%. AUC estimations were made manually using the trapezoidal method of integration.
To examine the oral bioavailability, PK studies were conducted to compare mice that had been dosed with Roc at 5 mg/kg via the IV, IP, or PO route, followed by measuring Roc concentrations in blood samples collected at various times post dosing. Two separate studies with three mice at each time point for each route of dosing were conducted. […] Areas under the plasma concentration-time curves (AUC0-7h) produced 245 μM min of exposure in the IV route and 142 μM min of exposure in the PO route. The concentrations of Roc appeared to more slowly decline in the plasma over 24 h (T1/2=2.4 hour) with the PO route compared to those dosed by IV route (T1/2=˜1.5 hour).

osteosarcoma PDX = test: Osteosarcoma PDX model (NCH-OS-7); type: in vivo, NSG mouse; details: 3 mg/kg IP every other day
From the text: To generate PDX models, the Nationwide Children's Hospital Institutional Review Board approved the Human Subjects Protocol for the acquisition of surgically-removed tumor specimens from patients and informed patient consents were obtained. Shortly after resection, fresh tumor tissues with their histological types confirmed by a specialized pathologist were placed in Dulbecco's-modified Eagle (DME) medium (Invitrogen) and brought to the research laboratory. A piece of tumor fragment was implanted subcutaneously on the dorsal right flank area in an eight-to-ten week-old immunodeficient mouse under anesthesia. Tumors were allowed to grow until established, at which time the established PDX tumors were repeatedly passed from one animal to the next or cryopreserved. For Roc treatment, actively-growing PDXs for a Ewing sarcoma (NCH-EWS-2), an osteosarcoma (NCH—OS-7), and an alveolar rhabdomyosarcoma (NCH-ARMS-2) were excised and cut into 5-mm pieces. Each tumor piece was re-implanted into an NSG mouse and tumor growth was monitored. Once noted, the tumor sizes in the axial plane at its greatest dimension (L) and the orthogonal short dimension (S) were measured twice weekly using a Fowler Ultra-Cal Electronic Caliper. Approximated tumor volumes were calculated using the formula V=(L×S^2)/2. […]

STS26T cells = test: Western blots of treated MPNST cells; type: cell-based, human; details: 1 or 2 IC50
Experimental: FIGS. 2A and 2B provide images showing that DDR and Roc increase caspase and PARP cleavage and elevated the levels of γH2AX while decreasing the expression of AKT and ERKs in MPNST cells. (A) Protein lysates prepared from STS26T cells treated for 3 days with 1 or 2 IC50 of DDR or Roc were analyzed by Western blots for the expression of various apoptosis-related proteins and mitogenic kinases AKT and ERK1/2. GAPDH served as a loading control. (B) Western blot analysis was performed on lysates from STS26T cells treated for 1 and 2 days with 1 or 2 IC50 of DDR for the expression of the DNA-damage response biomarker phosphorylated H2A.X (γH2A.X). As a positive control, lysates from HMS-97 human malignant schwannoma cells irradiated with 4 Grays (Gy) of X-ray were used.
Subconfluent cells were treated with the indicated doses of Roc or DDR for 24-72 hours and then harvested in cell lysis buffer (Cell Signaling Technology) containing 1 mM phenylmethylsufonylfluoride and protease inhibitor cocktail (Sigma-Aldrich). The protein content in cleared lysates was quantitated using the microBCA assay (ThermoFisher). Equal amounts of protein were run in sodium dodecyl sulfate-polyacrylamide gels and electrotransferred onto Immobilon-FL PVDF membranes (Millipore). The antibodies used were directed against: MDR1/ABCB1 (#13978), insulin-like growth factor-1 receptor β subunit (IGF-1Rβ; #9750), AKT (#9272), ERK1/2 (#4695), glyceraldehyde-3-phosphate dehydrogenase (GAPDH; #5174), caspase-3 (#9662), caspase-7 (#9492), cleaved caspase-7 (#9491), poly(ADP-ribose) polymerase (PARP; #9532), cleaved PARP (#5625), and phospho-histone H2A.X (pH2A.X[Ser′^39]; #9718; all from Cell Signaling Technology), NKX2.2 (sc-514161), LSD1 (sc-136174), and survivin (sc-17779; Santa Cruz Biotechnology), and FLI1 (ab15289) and cleaved caspase-3 (CC3; ab32042; Abeam). Protein bands were detected using IRDye® infrared fluorescent dye-labeled secondary antibodies and scanning on an Odyssey CLx imaging system (LI-COR Biosciences) using the appropriate fluorescent channel at a resolution of 84 μm.
To confirm induction of apoptosis in rocaglamide-treated MPNST cells, the inventors analyzed protein expression of several markers important for this process. […] A concomitant decrease in the amounts of intact caspases 3 and 7 and PARP was observed, consistent with the enhanced cleavage of these apoptotic markers and possibly due to direct effects of these rocaglamides on protein translation. Likewise, the levels of the pro-survival kinases AKT and ERK1/2 were diminished in rocaglamide-treated MPNST cells.

For `COc1ccc([C@@]23Oc4cc(OC)cc(OC)c4[C@]2(O)[C@H](O)[C@H](C(=O)N(C)C)[C@H]3c2ccccc2)cc1` [Roc, rocaglamide], the “Area under the plasma concentration-time curve (AUC0-7h)” value (in vivo; iv, 5 mg/kg) was 245 µM·min, the half-life (in vivo; iv, 5 mg/kg) was ~1.5 h and the “improvement of oral bioavailability over silvestrol” value (in vivo; po) was > 25 fold. The “Area under the plasma concentration-time curve (AUC0-7h)” value (in vivo; po, 5 mg/kg) was 142 µM·min, the Cmax (in vivo; po, 5 mg/kg) was ~800 nM and the T1/2 (in vivo; po, 5 mg/kg) was 2.4 h. The bioavailability (in vivo; po, 5 mg/kg) was ~50%, the “reduction of average tumor size compared to vehicle” value (osteosarcoma PDX) was ~80% and the “levels of γH2AX” value (STS26T cells; STS26T MPNST cells) was “elevated”. For the same molecule, the “cleavage of caspases 3 and 7 and PARP” value (STS26T cells; STS26T cells, 3 days) was “increased cleavage” and the “expression of AKT and ERKs” value (STS26T cells; STS26T cells, 3 days) was “decreasing”.

From patent US12403121B2, “Anticancer rocaglamide derivatives” (priority 2018, dated 2025)
